One may read the solubility as the dissolved amount per volume that the medium holds.

SMILES strings stand for the structures. In brackets after ≈: the same amount, converted by molar mass.

The values below come from patent publication US20110230481A2, “DERIVATIVES OF TETRABROMOBENZIMIDAZOLE, A PROCESS FOR THE PREPARATION THEREOF, A PHARMACEUTICAL COMPOSITION COMPRISING THE SAME, A METHOD OF USING THE SAME, A METHOD FOR MODULATING OR REGULATING SERINE/THREONINE KINASES, AND SERINE/THREONINE KINASES MODULATING AGENT” (SELVITA S.A., priority 2009, published 2011).

The test system of series [1] is human prostate adenocarcinoma PC3 cells. Nature of the series: Growth inhibition test (MTS). It counts as cell-based. The settings on record: PC-3; 72 hours. The procedure:
(§1) Two thousand cells of human prostate adenocarcinoma PC3 were inoculated into each well of a 96-well microplate (manufactured by Corning Corp.), and using F12K (Ham's F12:RPMI 8226 1:1) medium (culture medium) containing 10% fetal calf serum (FCS). The same day, a dimethyl sulfoxide (DMSO) solution of each test compound prepared in a concentration of 10 mmol/L was further diluted with DMSO to the desired concentrations (0.1, 0.5, 1, 2.5, 5 and 10 micromol/L), and the diluted solution was added to each well. The individual wells were further cultured in 5% carbon dioxide at 37° C. for 72 hours. After completion of the culture, 10 μl MTS (3-(4,5-Dimethyl-2-thiazolyl)-5-(carboxymethoxyphenyl)-2-(4-sulfophenyl)-2H-tetrazolium, inner salt assay (CellTiter96® AQueous One Solution Cell Proliferation Assay, Promega) was added to each well, and culturing was performed in 5% carbon dioxide at 37° C. for 2 hours. Using a microplate spectrophotometer (Synergy 2 multi-mode microplate reader (BioTek)), the absorbance of each well was measured at 490 nm. The value for cells not incorporated with a test compound was designated as 100%. By comparing these values with the absorbance difference obtained at the well in which each test compound was added, the cell viability (% viability) after treatment with the test compound was calculated.

Series [2] relates to human acute lymphocytic leukemia E6.1 Jurkat cells. Nature of the series: Growth inhibition test (MTS). It counts as cell-based. Particulars: Homo sapiens, 72 hours, read-out: Cytotoxicity in MTS assay (ED50). The protocol:
as §1, with “Twenty” for “Two”, “acute lumphocytic leukemia E6.1 Jurkat” for “prostate adenocarcinoma PC3”, “Corp.)” for “Corp.), and”, “[…]” for “F12K (Ham's F12:RPMI”, “[…]” for “8226 1:1)”
For orientation: Formazan colour is commonly taken as a measure of viable cells.

Series [3] concerns human myelomonocytic, biphenotypic leukemia MV4-11 cells. Nature of the series: Growth inhibition test (MTS). The settings on record: Homo sapiens, MV4-11; MV-4-11; 72 hours; read-out: Cytotoxicity in MTS assay (ED50). It counts as cell-based. The protocol: as §1, with “Ten” for “Two”, “myelomonocytic, biphenotypic leukemia MV4-11” for “prostate adenocarcinoma PC3”, “Corp.)” for “Corp.), and”, “Iscove's MDM” for “F12K (Ham's F12:RPMI 8226 1:1)”

The target in series [4] is CK2α (Homo sapiens, UniProt P68400). Nature of the series: Radiometric kinase assay (HotSpot).
Procedure: (§2) Kinase assays were performed at Reaction Biology Corporation (www.reactionbiology.com, Malvern Pa.) using the “HotSpot” assay platform. This assay platform is based on a radiometric filtration binding assay and is considered as the “gold standard” to which non-radiometric methods are compared. In this assay format, the kinase reaction is performed in the presence of 32 P-γ-ATP or 33 P-γ-ATP, followed by binding of the final radioisotope labeled peptide product to filters after which unreacted phosphate is washed away and the levels of phosphorylated peptide are measured.
Series [5] concerns the target PIM1 (Homo sapiens, UniProt P11309). Nature of the series: Radiometric kinase assay (HotSpot). The settings on record: for Selectivity for Pim-1 over CK2α: ratio of IC50 values.
Procedure: as §2
The target in series [6] is PIM3 (Homo sapiens, UniProt Q86V86). Nature of the series: Radiometric kinase assay (HotSpot). The settings on record: for Selectivity for Pim-3 over CK2α: ratio of IC50 values.
Procedure: as §2
For series [7], the target named is PIM2 (Homo sapiens, UniProt Q9P1W9). Nature of the series: Radiometric kinase assay (HotSpot). The settings on record: for Selectivity for Pim-2 over CK2α: ratio of IC50 values.
Procedure: as §2
For series [8], the system named is human acute myeloid leukemia MOLM-13 cells. Put plainly: Growth inhibition test (MTS). It is filed as cell-based. The settings on record: Homo sapiens, MOLM-13; MOLM13; 72 hours; read-out: Cytotoxicity in MTS assay (ED50). The protocol: as §1, with “Ten” for “Two”, “acute myeloid leukemia MOLM-13” for “human prostate adenocarcinoma PC3”, “Corp.)” for “Corp.), and”, “RPMI” for “F12K (Ham's F12:RPMI”, “8226” for “8226 1:1)”

Series [9] relates to human prostate carcinoma DU145 cells. Put plainly: Growth inhibition test (MTS). It counts as cell-based. The settings on record: 72 hours. The protocol: as §1, with “carcinoma DU145” for “adenocarcinoma PC3”, “DMEM” for “F12K (Ham's F12:RPMI 8226 1:1)”, “innersalt” for “inner salt”
Series [10] is described as follows: Solubility in pH 7.4. Particulars: phosphate buffer.
Procedure: Compound stock solutions were prepared in DMSO to final concentrations of 1000 mM. For each compound studied, 12 solutions were prepared to cover concentrations from 0.001 to 1 mM. As a solvent 0.2 mM phosphate buffer (pH 7.4) was used. The final concentration of DMSO in the solutions was 1% (v/v). The solutions were left mixing for 24 hours at 37° C., 350 rpm and following incubation centrifuged for 5 minutes at 14500 rpm. The samples were then analyzed by RP HPLC using a C18 column and 0.2% solution of formic acid in water/acetonitrile mobile phase. […] The solubility was determined as the point as the point at which the concentration curve reaches plateau.

Chain of PIM2 (Q9P1W9 whole entry): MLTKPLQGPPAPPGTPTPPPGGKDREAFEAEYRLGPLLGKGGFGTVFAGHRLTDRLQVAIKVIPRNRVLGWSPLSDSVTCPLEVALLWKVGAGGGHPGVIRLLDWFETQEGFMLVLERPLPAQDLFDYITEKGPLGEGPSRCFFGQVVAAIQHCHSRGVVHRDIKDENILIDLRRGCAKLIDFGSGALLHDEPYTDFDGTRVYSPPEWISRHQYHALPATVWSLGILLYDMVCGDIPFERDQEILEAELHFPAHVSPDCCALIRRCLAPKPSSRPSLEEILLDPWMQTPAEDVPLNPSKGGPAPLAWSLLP
Chain of PIM1 (P11309 whole entry): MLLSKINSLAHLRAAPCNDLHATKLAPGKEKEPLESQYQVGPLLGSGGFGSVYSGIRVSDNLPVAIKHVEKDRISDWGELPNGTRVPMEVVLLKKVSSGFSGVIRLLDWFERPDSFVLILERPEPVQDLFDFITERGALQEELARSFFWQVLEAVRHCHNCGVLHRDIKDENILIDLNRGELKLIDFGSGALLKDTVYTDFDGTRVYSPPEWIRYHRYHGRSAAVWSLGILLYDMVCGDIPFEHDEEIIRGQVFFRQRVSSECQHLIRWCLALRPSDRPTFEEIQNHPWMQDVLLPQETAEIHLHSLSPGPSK
Chain of CK2α (P68400 whole entry): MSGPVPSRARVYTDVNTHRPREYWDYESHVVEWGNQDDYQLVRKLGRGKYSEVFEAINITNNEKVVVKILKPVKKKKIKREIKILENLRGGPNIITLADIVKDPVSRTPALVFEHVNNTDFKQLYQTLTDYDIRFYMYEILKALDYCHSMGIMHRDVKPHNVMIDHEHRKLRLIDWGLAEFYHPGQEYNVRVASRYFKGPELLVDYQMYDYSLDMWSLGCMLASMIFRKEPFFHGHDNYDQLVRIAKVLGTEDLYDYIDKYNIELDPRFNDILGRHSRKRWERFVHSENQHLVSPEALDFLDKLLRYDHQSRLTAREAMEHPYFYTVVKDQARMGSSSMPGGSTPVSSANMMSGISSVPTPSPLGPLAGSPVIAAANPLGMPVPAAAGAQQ

Turning to `Brc1c(Br)c(Br)c2[nH]c(NCCCn3ccnc3)nc2c1Br` [Compound 65, N-(3-(1H-imidazol-1-yl)propyl)-4,5,6,7-tetrabromo-1H-benzo[d]imidazol-2-amine], the “Cytotoxicity in MTS assay (ED50)” value in series [1] is greater than 10000 nM; in series [9], 7720 nM. Also, the IC50 in series [2] was greater than 10000 nM; in [3], greater than 10000 nM; in series [4], 448 nM; in series [5] it was 87.1 nM; in series [6] it was 15.8 nM; in [7] it was 823 nM. The IC50 in [8] was determined as 6880 nM. For the same molecule, the “Selectivity for Pim-1 over CK2α” value in series [5] stood at 5.1. In series [6], the “Selectivity for Pim-3 over CK2α” value stood at 28.3. Moreover, the “Selectivity for Pim-2 over CK2α” value in series [7] worked out at 0.5.
Take `NCC(O)CNc1nc2c(Br)c(Br)c(Br)c(Br)c2[nH]1` (centres unmarked) [Compound 90, 1-(4,5,6,7-tetrabromo-1H-benzo[d]imidazol-2-ylamino)-3-aminopropan-2-ol]: the IC50 in [2] was 5780 nM; in series [3] it was 2120 nM; in series [4], 110 nM; in [5] it was 9.1 nM; in [6] it was 7.6 nM; in series [7], 90.3 nM. Besides, the IC50 in series [8] was 6910 nM. Besides, the “Selectivity for Pim-1 over CK2α” value in series [5] is on record as 12.0. Moreover, in series [6], the “Selectivity for Pim-3 over CK2α” value came out at 14.4. In addition, the solubility at 24 h in [10] worked out at 72 µM (≈ 37.6 µg/mL). Further, the “Selectivity for Pim-2 over CK2α” value in series [7] worked out at 1.2.
`Brc1c(Br)c(Br)c2[nH]c(Nc3ccccc3)nc2c1Br` [Compound 79, 4,5,6,7-tetrabromo-N-phenyl-1H-benzo[d]imidazol-2-amine]: the IC50 in series [2] is 9060 nM; in series [3] it was 4400 nM; in series [4] it was 1960 nM; in series [5] it was 1510 nM; in series [6] it was 2960 nM; in [7], greater than 20000 nM. For the same molecule, the IC50 in [8] turned out to be 5960 nM. Moreover, the “Selectivity for Pim-1 over CK2α” value in [5] was determined as 1.3. The “Selectivity for Pim-3 over CK2α” value in series [6] is reported as 0.7.
In the case of `Nc1ccc(Nc2nc3c(Br)c(Br)c(Br)c(Br)c3[nH]2)cc1` [Compound 86, N1-(4,5,6,7-tetrabromo-1H-benzo[d]imidazol-2-yl)benzene-1,4-diamine], the IC50 is 8270 nM in [2]; 5810 nM in series [3]; 734 nM in [4]; 547 nM in series [5]; 680 nM in series [6]; 1550 nM in series [7]. For the same molecule, the IC50 in series [8] stood at 8810 nM. Besides, the “Selectivity for Pim-1 over CK2α” value in series [5] turned out to be 1.3. The “Selectivity for Pim-3 over CK2α” value in series [6] turned out to be 1.1. In addition, the “Selectivity for Pim-2 over CK2α” value in series [7] is recorded as 0.5.
For `Brc1c(Br)c(Br)c2[nH]c(NCCCN3CCCCC3)nc2c1Br` [Compound 59, 4,5,6,7-tetrabromo-N-(3-(piperidin-1-yl)propyl)-1H-benzo[d]imidazol-2-amine], the IC50 in [2] was 4410 nM; in series [3], 2810 nM; in series [4] it was 855 nM; in [5] it was 88 nM; in series [6], 189 nM; in series [7] it was 1490 nM. Further, the IC50 in series [8] was 3510 nM. In addition, the “Selectivity for Pim-1 over CK2α” value in series [5] worked out at 9.7. Moreover, the “Selectivity for Pim-3 over CK2α” value in series [6] was found to be 4.5. In [7], the “Selectivity for Pim-2 over CK2α” value is listed as 0.6.
Consider `NCCCCNc1nc2c(Br)c(Br)c(Br)c(Br)c2[nH]1` [Compound 61, N-(4-aminobutyl)-4,5,6,7-tetrabromo-1H-benzo[d]imidazol-2-amine], for which the IC50 in series [2] was determined as 7920 nM; in [3], 4430 nM; in series [4] it was 386 nM; in series [5], 5.2 nM; in [6], 20.2 nM; in [7] it was 199 nM. Also, in series [8], the IC50 came out at 5950 nM. Also, the “Selectivity for Pim-1 over CK2α” value in series [5] amounted to 74.2. For the same molecule, the “Selectivity for Pim-3 over CK2α” value in series [6] was determined as 19.1. Moreover, the “Selectivity for Pim-2 over CK2α” value in series [7] came out at 1.9.
